Test results: patent publication US4324728A, “Compound nanaomycin A and derivatives thereof and a process for producing the same” (The Kitasato Institute, priority 1976, dated 1982)
≈ marks a conversion by molar mass, not a printed value. Like-named read-outs stand apart in the source and are kept apart here.

Legend:
Candida albicans = assay: Minimal inhibitory concentration (agar); type: cell-based; settings: pH 6.4, 4 days, 27° C.
Protocol: (§1) P potato agar (pH 6.4, 4 days, 27° C.)
(§2) MIC Minimal inhibitory concentration
(§3) Minimal inhibitory concentration was assayed by agar dilution method
(§4) (potato agar, pH 6.4, 27° C., 4 days).

Trichophyton rubrum = assay: Minimal inhibitory concentration (agar); type: cell-based; settings: potato agar, pH 6.4, 4 days, 27° C.
Protocol: as §1, §2, §3, §4

Trichophyton schoenleini = assay: Minimal inhibitory concentration (agar); type: cell-based; settings: potato agar, pH 6.4, 4 days, 27° C.
Protocol: as §1, §2, §3, §4

Saccharomyces sake = assay: Minimal inhibitory concentration (agar); type: cell-based; settings: potato agar, pH 6.4, 4 days, 27° C.
Trichophyton asteroides = assay: Minimal inhibitory concentration (agar); type: cell-based; settings: potato agar, pH 6.4, 4 days, 27° C.
Trichophyton ferrugineum = assay: Minimal inhibitory concentration (agar); type: cell-based; settings: potato agar, pH 6.4, 4 days, 27° C.
[1] = test system: Trichophyton interdigitale; assay: Minimal inhibitory concentration (agar); type: cell-based; settings: potato agar, pH 6.4, 4 days, 27° C.
Trichophyton violaceum = assay: Minimal inhibitory concentration (agar); type: cell-based; settings: potato agar, pH 6.4, 4 days, 27° C.
Aspergillus niger = assay: Minimal inhibitory concentration (agar); type: cell-based; settings: potato agar, pH 6.4, 4 days, 27° C.
Protocol: as §3, §4, §1

Aspergillus fumigatus = assay: Minimal inhibitory concentration (agar dilution method); type: cell-based; settings: potato agar, pH 6.4, 27° C., 4 days
Protocol: as §3, §4

Microsporum gypseum = assay: as above; type: cell-based; settings: potato agar, pH 6.4, 27° C., 4 days
Protocol: as §3, §4

[2] = test system: Staphylococcus aureus FDA 209P; assay: Minimal inhibitory concentration (agar); type: cell-based; settings: FDA209P, 48 h, nutrient agar, pH 7.0, 2 days, 37° C.
[3] = test system: Bacillus subtilis PCI 219; assay: Minimal inhibitory concentration (agar); type: cell-based; settings: Bacillus subtilis, PCI219, 48 h, pH 7, nutrient agar, pH 7.0, 2 days, 37° C.; read-out: MIC
Protocol: (§5) Medium N nutrient agar (pH 7.0, 2 days, 37° C.)
as §2
(§6) N nutrient agar (pH 7.0, 2 days, 37° C.)

[4] = test system: Escherichia coli NIHJ (JC-2); assay: Minimal inhibitory concentration (agar); type: cell-based; settings: 48 h, pH 7, nutrient agar, pH 7.0, 2 days, 37° C.
Protocol: as §5, §2, §6

Pseudomonas aeruginosa = assay: Minimal inhibitory concentration (agar); type: cell-based; settings: 48 h, nutrient agar, pH 7.0, 2 days, 37° C.
Protocol: as §5, §2, §6

Sarcina lutea PCI 1001 = assay: Minimal inhibitory concentration (agar); type: cell-based; settings: Micrococcus luteus, PCI1001, 48 h, pH 7, nutrient agar, pH 7.0, 2 days, 37° C.; read-out: MIC
Protocol: as §5, §2, §6

Shigella flexneri = assay: Minimal inhibitory concentration (agar); type: cell-based; settings: 48 h, nutrient agar, pH 7.0, 2 days, 37° C.
Protocol: as §5, §2, §6

[5] = test system: Staphylococcus aureus FDA 209P (JC-1); assay: Minimal inhibitory concentration (agar); type: cell-based; settings: FDA209P, 48 h, nutrient agar, pH 7.0, 2 days, 37° C.
Protocol: as §5, §2, §6

Escherichia coli NIHJ = assay: Minimal inhibitory concentration (agar); type: cell-based; settings: 48 h, nutrient agar, pH 7.0, 2 days, 37° C.
[6] = test system: Klebsiella pneumoniae PCI 602; assay: Minimal inhibitory concentration (agar); type: cell-based; settings: PCI602, 48 h, nutrient agar, pH 7.0, 2 days, 37° C.
Salmonella typhimurium = assay: Minimal inhibitory concentration (agar); type: cell-based; settings: Salmonella enterica, 48 h, nutrient agar, pH 7.0, 2 days, 37° C.
[7] = test system: Mycoplasma gallisepticum 333P (Spiramycin resistant); assay: Minimal inhibitory concentration (PPLO agar); type: cell-based; settings: Mycoplasmoides gallisepticum, 192 h, pH 7.8
Protocol: (§7) H Hokken PPLO agar (pH 7.8, 8 days, 37° C.)
(§8) E Eiken PPLO agar (pH 7.8, 8 days, 37° C.)
as §2

[8] = test system: Mycoplasma gallisepticum KP-13; assay: Minimal inhibitory concentration (PPLO agar); type: cell-based; settings: Mycoplasmoides gallisepticum, KP13, 192 h; Eiken PPLO agar, pH 7.8, 8 days, 37° C.; read-out: MIC
Protocol: as §7, §8, §2

[9] = test system: Mycoplasma gallisepticum S-6; assay: Minimal inhibitory concentration (PPLO agar); type: cell-based; settings: Mycoplasmoides gallisepticum, S6, 192 h; Eiken PPLO agar, pH 7.8, 8 days, 37° C.; read-out: MIC
Protocol: as §7, §8, §2

Mycoplasma gallinarum = assay: Minimal inhibitory concentration (PPLO agar); type: cell-based; settings: Mycoplasmopsis gallinarum, 192 h, Eiken PPLO agar, pH 7.8, 8 days, 37° C.
Protocol: as §7, §2, §8

Mycoplasma iners = assay: Minimal inhibitory concentration (PPLO agar); type: cell-based; settings: Mycoplasmopsis iners, 192 h; Eiken PPLO agar, pH 7.8, 8 days, 37° C.
Protocol: as §7, §2, §8

Mycoplasma pneumoniae = assay: Minimal inhibitory concentration (PPLO agar); type: cell-based; settings: 192 h, Eiken PPLO agar, pH 7.8, 8 days, 37° C.
[10] = test system: Mycobacterium smegmatis ATCC 607; assay: Minimal inhibitory concentration (agar); type: cell-based; settings: Mycolicibacterium smegmatis, ATCC607, 48 h; nutrient agar, pH 7.0, 2 days, 37° C.
Sclerotinia cinerea = assay: Minimal inhibitory concentration (agar); type: cell-based; settings: 96 h, potato agar, pH 6.4, 4 days, 27° C.
Protocol: | P potato agar (pH 6.4, 4 days, 27° C.)

Gram-positive bacteria = assay: Antibacterial activity (in words); type: cell-based
mycoplasmas = assay: Antimycoplasma activity (in words); type: cell-based
fungi = assay: Antifungal activity (in words); type: cell-based
[11] = test system: mycoplasma, Gram-positive bacteria and tricophyton; assay: Antimicrobial activity (in words); type: cell-based
[12] = test system: parasite of the genus Tricophyton; assay: Therapeutic effect on infectious diseases in guinea pigs and cattle; type: in vivo
Protocol: When dermatomycosis of cattle caused by mass infection of Trichophyton verrucosum is treated with nanaomycin A, nanaomycin A is dissolved or suspended in a suitable carrier, for example, olive oil, and is coated on the affected part directly with or without removal of the scales. […] The results obtained by once-coating of nanaomycin A and by twice-coating (the second coating is carried out a week after the first coating) are shown in Tables 2 and 3, respectively.

Solubility = type: physicochemical

## ethylkalafunginate [reference compound]
Candida albicans; potato agar
  MIC: > 100 µg/mL
Trichophyton rubrum
  MIC: > 100 µg/mL
Trichophyton schoenleini
  MIC: > 100 µg/mL
Saccharomyces sake
  MIC: > 100 µg/mL
Trichophyton asteroides
  MIC: > 100 µg/mL
Trichophyton ferrugineum
  MIC: > 100 µg/mL
[1]
  MIC: > 100 µg/mL
Trichophyton violaceum
  MIC: > 100 µg/mL
Aspergillus niger
  MIC: > 100 µg/mL
Aspergillus fumigatus
  Minimal Inhibitory Con.: > 100 µg/mL
Microsporum gypseum
  Minimal Inhibitory Con.: > 100 µg/mL

## CC1OC(CC(N)=O)CC2=C1C(=O)c1c(O)cccc1C2=O (centres unmarked) [Nanaomycin C, nanaomycin C]
[2]
  MIC: 6.3 µg/mL (≈ 20.9 µM)
[3]
  MIC: 6.3 µg/mL (≈ 20.9 µM)
[4]
  MIC: > 100 µg/mL
Pseudomonas aeruginosa
  MIC: > 100 µg/mL
Sarcina lutea PCI 1001
  MIC: 25 µg/mL (≈ 83 µM)
Shigella flexneri
  MIC: > 100 µg/mL
[5]
  MIC: 3.1 µg/mL (≈ 10.3 µM)
Escherichia coli NIHJ
  MIC: 100 µg/mL (≈ 332 µM)
[6]
  MIC: > 100 µg/mL
Salmonella typhimurium
  MIC: > 100 µg/mL
Candida albicans; Candida albicans, 96 h, pH 6.4, potato agar, read-out: MIC
  MIC: > 100 µg/mL
Saccharomyces sake; Saccharomyces, 96 h, read-out: MIC
  MIC: > 100 µg/mL
[1]; Trichophyton interdigitale, 96 h, read-out: MIC
  MIC: 100 µg/mL (≈ 332 µM)
[7]
  MIC: 3.1 µg/mL (≈ 10.3 µM)
[8]
  MIC: 12.5 µg/mL (≈ 41.5 µM)
[9]
  MIC: 6.3 µg/mL (≈ 20.9 µM)
Mycoplasma gallinarum
  MIC: 12.5 µg/mL (≈ 41.5 µM)
Mycoplasma iners
  MIC: 50 µg/mL (≈ 166 µM)
Mycoplasma pneumoniae
  MIC: 6.3 µg/mL (≈ 20.9 µM)
[10]
  MIC: 50 µg/mL (≈ 166 µM)
Aspergillus niger; Aspergillus niger, 96 h, read-out: MIC
  MIC: > 100 µg/mL
Sclerotinia cinerea
  MIC: 100 µg/mL (≈ 332 µM)
Gram-positive bacteria
  activity against Gram-positive bacteria: as strong activity against Gram-positive bacteria as nanaomycin A
mycoplasmas
  activity against mycoplasma(s): a weaker activity against fungi and mycoplasmas than nanaomycin A
fungi
  activity against fungi: a weaker activity against fungi and mycoplasmas than nanaomycin A
[11]
  antimicrobial activity: inhibits mainly Gram-positive bacteria and mycoplasmas
[12]
  therapeutic effect on Trichophyton infectious diseases: poor therapeutic effect
Solubility; methanol, ethanol, ethylacetate, chloroform, acetone
  Solubility in methanol, ethanol, ethylacetate, chloroform and acetone: Soluble
Solubility; n-hexane, petroleum ether
  Solubility in n-hexane and petroleum ether: Insoluble
Solubility; water
  Solubility in water: Insoluble
